Reference: PubChem BioAssay (NCI)
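Each compound was tested at five concentrations against cells in 96-well plates for 48 hours. TGI: concentration producing complete growth inhibition.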

How the values were obtained:
Assay in all cases: DTP human tumour cell line panel, 48 h
SR leukemia = system: SR leukemia
DU-145 prostate = system: DU-145 prostate
TK-10 renal = system: TK-10 renal
SK-MEL-28 melanoma = system: SK-MEL-28 melanoma
SF-539 CNS = system: SF-539 CNS
786-0 renal = system: 786-0 renal
HT29 colon = system: HT29 colon
OVCAR-8 ovarian = system: OVCAR-8 ovarian
CAKI-1 renal = system: CAKI-1 renal
BT-549 breast = system: BT-549 breast
MDA-MB-435 = system: MDA-MB-435
RXF 393 renal = system: RXF 393 renal
NCI-H23 lung = system: NCI-H23 lung
MALME-3M melanoma = system: MALME-3M melanoma
EKVX NSCLC = system: EKVX NSCLC
SK-MEL-5 melanoma = system: SK-MEL-5 melanoma
RPMI-8226 leukemia = system: RPMI-8226 leukemia
ACHN renal = system: ACHN renal
CCRF-CEM leukemia = system: CCRF-CEM leukemia
HL-60(TB) leukemia = system: HL-60(TB) leukemia
SN12C renal = system: SN12C renal
OVCAR-5 ovarian = system: OVCAR-5 ovarian
NCI-H522 lung = system: NCI-H522 lung
U251 CNS = system: U251 CNS
HOP-62 NSCLC = system: HOP-62 NSCLC
MOLT-4 leukemia = system: MOLT-4 leukemia
HS 578T breast = system: HS 578T breast
OVCAR-4 ovarian = system: OVCAR-4 ovarian
OVCAR-3 ovarian = system: OVCAR-3 ovarian
PC-3 prostate = system: PC-3 prostate
SNB-19 CNS = system: SNB-19 CNS
COLO 205 colon = system: COLO 205 colon
KM12 colon = system: KM12 colon
IGROV1 ovarian = system: IGROV1 ovarian
NCI-H226 lung = system: NCI-H226 lung
MDA-N = system: MDA-N
UACC-62 melanoma = system: UACC-62 melanoma
SNB-75 CNS = system: SNB-75 CNS
SF-268 CNS = system: SF-268 CNS
A549 NSCLC = system: A549 NSCLC
NCI-H460 lung = system: NCI-H460 lung
SF-295 CNS = system: SF-295 CNS
UACC-257 melanoma = system: UACC-257 melanoma
HCT-15 colon = system: HCT-15 colon
HOP-92 NSCLC = system: HOP-92 NSCLC
SK-MEL-2 melanoma = system: SK-MEL-2 melanoma
T-47D breast = system: T-47D breast
SW-620 colon = system: SW-620 colon
HCT-116 colon = system: HCT-116 colon
MDA-MB-231 breast = system: MDA-MB-231 breast
K-562 leukemia = system: K-562 leukemia
LOX IMVI melanoma = system: LOX IMVI melanoma
A498 renal = system: A498 renal
UO-31 renal = system: UO-31 renal
NCI/ADR-RES ovarian = system: NCI/ADR-RES ovarian
SK-OV-3 ovarian = system: SK-OV-3 ovarian
MCF7 breast = system: MCF7 breast
M14 melanoma = system: M14 melanoma

In the case of `Cc1c(CCCl)c(N=[N+]=[N-])n2c(nc3ccccc32)c1C#N`, the TGI (SR leukemia) was 1.08 µM, the TGI (DU-145 prostate) was 6.3 µM and the TGI (TK-10 renal) was 3.02 µM. It also gave a TGI (SK-MEL-28 melanoma) of 3.27 µM, a TGI (SF-539 CNS) of 3.5 µM and a TGI (786-0 renal) of 1.63 µM. The TGI (HT29 colon) was 4.52 µM, the TGI (OVCAR-8 ovarian) was 5.21 µM and the TGI (CAKI-1 renal) was 3 µM. It also gave a TGI (BT-549 breast) of 2.1 µM, a TGI (MDA-MB-435) of 2.73 µM and a TGI (RXF 393 renal) of 2.85 µM. It also gave a TGI (NCI-H23 lung) of 2.95 µM, a TGI (MALME-3M melanoma) of 2.9 µM and a TGI (EKVX NSCLC) of 4.4 µM. For the same molecule, the TGI (SK-MEL-5 melanoma) was 1.35 µM, the TGI (RPMI-8226 leukemia) was 2.33 µM and the TGI (ACHN renal) was 2.85 µM. For the same molecule, the TGI (CCRF-CEM leukemia) was 0.987 µM, the TGI (HL-60(TB) leukemia) was 2.6 µM and the TGI (SN12C renal) was 3.13 µM. It also gave a TGI (OVCAR-5 ovarian) of 4.73 µM, a TGI (NCI-H522 lung) of 0.44 µM and a TGI (U251 CNS) of 6.02 µM. The TGI (HOP-62 NSCLC) was 5.01 µM, the TGI (MOLT-4 leukemia) was 1.12 µM and the TGI (HS 578T breast) was 2.43 µM. It also gave a TGI (OVCAR-4 ovarian) of 3.54 µM, a TGI (OVCAR-3 ovarian) of 3.15 µM and a TGI (PC-3 prostate) of 2.72 µM. It also gave a TGI (SNB-19 CNS) of 8.37 µM, a TGI (COLO 205 colon) of 2.66 µM and a TGI (KM12 colon) of 3.27 µM. It also gave a TGI (IGROV1 ovarian) of 1.64 µM, a TGI (NCI-H226 lung) of 4.29 µM and a TGI (MDA-N) of 3.12 µM. For the same molecule, the TGI (UACC-62 melanoma) was 3.12 µM, the TGI (SNB-75 CNS) was 2.87 µM and the TGI (SF-268 CNS) was 5.67 µM. For the same molecule, the TGI (A549 NSCLC) was 5.95 µM, the TGI (NCI-H460 lung) was 3.32 µM and the TGI (SF-295 CNS) was 3.54 µM. It also gave a TGI (UACC-257 melanoma) of 3.53 µM, a TGI (HCT-15 colon) of 2.72 µM and a TGI (HOP-92 NSCLC) of 2.61 µM. It also gave a TGI (SK-MEL-2 melanoma) of 3.48 µM, a TGI (T-47D breast) of 3.18 µM and a TGI (SW-620 colon) of 1.21 µM. It also gave a TGI (HCT-116 colon) of 1.55 µM, a TGI (MDA-MB-231 breast) of 3.16 µM and a TGI (K-562 leukemia) of 1.48 µM. It also gave a TGI (LOX IMVI melanoma) of 2.37 µM, a TGI (A498 renal) of 3.85 µM and a TGI (UO-31 renal) of 3.32 µM. The TGI (NCI/ADR-RES ovarian) was 5.53 µM, the TGI (SK-OV-3 ovarian) was 5.07 µM and the TGI (MCF7 breast) was 2.14 µM. It also gave a TGI (M14 melanoma) of 2.77 µM.
`O=c1[nH]c(SCc2c(Cl)c(Cl)c(Cl)c(Cl)c2Cl)nc(=S)[nH]1` showed a TGI (SR leukemia) of 0.516 µM, a TGI (DU-145 prostate) of over 100 µM and a TGI (TK-10 renal) of over 100 µM. It also gave a TGI (SK-MEL-28 melanoma) of 98.6 µM, a TGI (SF-539 CNS) of over 100 µM and a TGI (786-0 renal) of over 100 µM. For the same molecule, the TGI (HT29 colon) was over 63 µM, the TGI (OVCAR-8 ovarian) was over 100 µM and the TGI (CAKI-1 renal) was over 100 µM. The TGI (BT-549 breast) was over 100 µM, the TGI (MDA-MB-435) was over 100 µM and the TGI (RXF 393 renal) was 35.5 µM. For the same molecule, the TGI (NCI-H23 lung) was over 100 µM, the TGI (MALME-3M melanoma) was 73.4 µM and the TGI (EKVX NSCLC) was over 100 µM. For the same molecule, the TGI (SK-MEL-5 melanoma) was over 100 µM, the TGI (RPMI-8226 leukemia) was 23.3 µM and the TGI (ACHN renal) was over 100 µM. The TGI (CCRF-CEM leukemia) was 36.9 µM, the TGI (HL-60(TB) leukemia) was 51.4 µM and the TGI (SN12C renal) was over 100 µM. It also gave a TGI (OVCAR-5 ovarian) of over 100 µM, a TGI (NCI-H522 lung) of 34.4 µM and a TGI (U251 CNS) of over 100 µM. It also gave a TGI (HOP-62 NSCLC) of over 100 µM, a TGI (MOLT-4 leukemia) of 21.3 µM and a TGI (HS 578T breast) of over 100 µM. For the same molecule, the TGI (OVCAR-4 ovarian) was 54.8 µM, the TGI (OVCAR-3 ovarian) was 31 µM and the TGI (PC-3 prostate) was over 100 µM. For the same molecule, the TGI (SNB-19 CNS) was over 100 µM, the TGI (COLO 205 colon) was 33.8 µM and the TGI (KM12 colon) was over 100 µM. It also gave a TGI (IGROV1 ovarian) of over 100 µM, a TGI (NCI-H226 lung) of over 100 µM and a TGI (MDA-N) of over 100 µM. The TGI (UACC-62 melanoma) was over 100 µM, the TGI (SNB-75 CNS) was over 100 µM and the TGI (SF-268 CNS) was over 100 µM. It also gave a TGI (A549 NSCLC) of over 100 µM, a TGI (NCI-H460 lung) of over 100 µM and a TGI (SF-295 CNS) of over 100 µM. The TGI (UACC-257 melanoma) was over 100 µM, the TGI (HCT-15 colon) was over 100 µM and the TGI (HOP-92 NSCLC) was over 100 µM. The TGI (SK-MEL-2 melanoma) was over 100 µM, the TGI (T-47D breast) was over 82.9 µM and the TGI (SW-620 colon) was over 100 µM. The TGI (HCT-116 colon) was over 100 µM, the TGI (MDA-MB-231 breast) was over 100 µM and the TGI (K-562 leukemia) was 45.9 µM. For the same molecule, the TGI (LOX IMVI melanoma) was over 100 µM, the TGI (A498 renal) was over 100 µM and the TGI (UO-31 renal) was over 58.9 µM. The TGI (NCI/ADR-RES ovarian) was over 100 µM, the TGI (SK-OV-3 ovarian) was over 100 µM and the TGI (MCF7 breast) was over 100 µM. The TGI (M14 melanoma) was over 100 µM.
